Measurements: patent US20220016241A1, “COMPOSITIONS AND METHODS FOR REDUCING ANTIGEN-SPECIFIC IMMUNOGENICITY” (The Research Foundation for The State University of New York, priority 2013, published 2022)

Experiments:
lymphocyte subsets = experiment: Lymphocyte subsets in peripheral blood after 21 daily doses of OPLS; assay type: in vivo, rhesus macaques; settings: 21 daily doses of 25 mg/kg
Experimental: FIG. 23. Effect of 21 daily doses of 25 mg/kg OPLS on lymphocyte subsets in peripheral blood of rhesus macaques. Samples were drawn from the animals at baseline (day 0), at an intermediate time point during treatment (day 8) and 1 day after the termination of dosing (day 22) and immunophenotyped using flow cytometry. […] (*p value<0.05).

[1] = Safety of repeated high doses of OPLS; assay type: in vivo, rodent and primate models; settings: up to 950 mg
Experimental: Given that the methods disclosed herein appear to work best with doses of OPLS that equal or exceed 5 mg, it is important to understand the safety and toxicity of high doses of OPLS.

anti-FVIII total titers = experiment: OPLS-FVIII sequential administration study; assay type: in vivo, Hemophilia A mice; settings: 5 mg OPLS then 1 μg FVIII 5 minutes later, same site, 4 weekly sc; 4 weekly iv rechallenge
Experimental: To determine if OPLS can exert its immunomodulatory effects on the immune response to FVIII when the two are administered in separate injections temporally spaced apart, at the same injection site the following experiments were carried out. Hemophilia A mice (n=6 animals/group) were immunized with 4 weekly sc injections as follows. The control group of animals received one injection of sterile TRIS buffer (100 μL volume) then, after a 5 minute wait, they received a second injection of 1 μg FVIII in sterile TRIS (100 μL volume) at the same injection site. The second group of mice received one injection of 5 mg OPLS (100 μL volume) then, after a 5 minute wait, they received a second injection of 1 μg FVIII in sterile TRIS (100 μL volume) at the same injection site. After a two-week rest period (week 6) all of the mice were then rechallenged with 4 weekly intravenous injections of 1 μg of FVIII in 100 μL sterile TRIS […]. Mice were sacrificed after two weeks and a terminal blood sample was collected using cardiac puncture. Analysis was done by ELISA for total titers. […] This administration method was able to induce a hypo-responsiveness towards FVIII.

FVIII = target: T1, FVIII (Homo sapiens, UniProt P00451); experiment: Binding of OPLS to FVIII by fluorescence spectroscopy
T1 construct: Full length recombinant human FVIII (Baxter Biosciences, Carlsbad, Calif.) was obtained as a gift; purchased Baxter Biosciences (gift from the Western New York Hemophilia Foundation)
T1 sequence (P00451 20-2351): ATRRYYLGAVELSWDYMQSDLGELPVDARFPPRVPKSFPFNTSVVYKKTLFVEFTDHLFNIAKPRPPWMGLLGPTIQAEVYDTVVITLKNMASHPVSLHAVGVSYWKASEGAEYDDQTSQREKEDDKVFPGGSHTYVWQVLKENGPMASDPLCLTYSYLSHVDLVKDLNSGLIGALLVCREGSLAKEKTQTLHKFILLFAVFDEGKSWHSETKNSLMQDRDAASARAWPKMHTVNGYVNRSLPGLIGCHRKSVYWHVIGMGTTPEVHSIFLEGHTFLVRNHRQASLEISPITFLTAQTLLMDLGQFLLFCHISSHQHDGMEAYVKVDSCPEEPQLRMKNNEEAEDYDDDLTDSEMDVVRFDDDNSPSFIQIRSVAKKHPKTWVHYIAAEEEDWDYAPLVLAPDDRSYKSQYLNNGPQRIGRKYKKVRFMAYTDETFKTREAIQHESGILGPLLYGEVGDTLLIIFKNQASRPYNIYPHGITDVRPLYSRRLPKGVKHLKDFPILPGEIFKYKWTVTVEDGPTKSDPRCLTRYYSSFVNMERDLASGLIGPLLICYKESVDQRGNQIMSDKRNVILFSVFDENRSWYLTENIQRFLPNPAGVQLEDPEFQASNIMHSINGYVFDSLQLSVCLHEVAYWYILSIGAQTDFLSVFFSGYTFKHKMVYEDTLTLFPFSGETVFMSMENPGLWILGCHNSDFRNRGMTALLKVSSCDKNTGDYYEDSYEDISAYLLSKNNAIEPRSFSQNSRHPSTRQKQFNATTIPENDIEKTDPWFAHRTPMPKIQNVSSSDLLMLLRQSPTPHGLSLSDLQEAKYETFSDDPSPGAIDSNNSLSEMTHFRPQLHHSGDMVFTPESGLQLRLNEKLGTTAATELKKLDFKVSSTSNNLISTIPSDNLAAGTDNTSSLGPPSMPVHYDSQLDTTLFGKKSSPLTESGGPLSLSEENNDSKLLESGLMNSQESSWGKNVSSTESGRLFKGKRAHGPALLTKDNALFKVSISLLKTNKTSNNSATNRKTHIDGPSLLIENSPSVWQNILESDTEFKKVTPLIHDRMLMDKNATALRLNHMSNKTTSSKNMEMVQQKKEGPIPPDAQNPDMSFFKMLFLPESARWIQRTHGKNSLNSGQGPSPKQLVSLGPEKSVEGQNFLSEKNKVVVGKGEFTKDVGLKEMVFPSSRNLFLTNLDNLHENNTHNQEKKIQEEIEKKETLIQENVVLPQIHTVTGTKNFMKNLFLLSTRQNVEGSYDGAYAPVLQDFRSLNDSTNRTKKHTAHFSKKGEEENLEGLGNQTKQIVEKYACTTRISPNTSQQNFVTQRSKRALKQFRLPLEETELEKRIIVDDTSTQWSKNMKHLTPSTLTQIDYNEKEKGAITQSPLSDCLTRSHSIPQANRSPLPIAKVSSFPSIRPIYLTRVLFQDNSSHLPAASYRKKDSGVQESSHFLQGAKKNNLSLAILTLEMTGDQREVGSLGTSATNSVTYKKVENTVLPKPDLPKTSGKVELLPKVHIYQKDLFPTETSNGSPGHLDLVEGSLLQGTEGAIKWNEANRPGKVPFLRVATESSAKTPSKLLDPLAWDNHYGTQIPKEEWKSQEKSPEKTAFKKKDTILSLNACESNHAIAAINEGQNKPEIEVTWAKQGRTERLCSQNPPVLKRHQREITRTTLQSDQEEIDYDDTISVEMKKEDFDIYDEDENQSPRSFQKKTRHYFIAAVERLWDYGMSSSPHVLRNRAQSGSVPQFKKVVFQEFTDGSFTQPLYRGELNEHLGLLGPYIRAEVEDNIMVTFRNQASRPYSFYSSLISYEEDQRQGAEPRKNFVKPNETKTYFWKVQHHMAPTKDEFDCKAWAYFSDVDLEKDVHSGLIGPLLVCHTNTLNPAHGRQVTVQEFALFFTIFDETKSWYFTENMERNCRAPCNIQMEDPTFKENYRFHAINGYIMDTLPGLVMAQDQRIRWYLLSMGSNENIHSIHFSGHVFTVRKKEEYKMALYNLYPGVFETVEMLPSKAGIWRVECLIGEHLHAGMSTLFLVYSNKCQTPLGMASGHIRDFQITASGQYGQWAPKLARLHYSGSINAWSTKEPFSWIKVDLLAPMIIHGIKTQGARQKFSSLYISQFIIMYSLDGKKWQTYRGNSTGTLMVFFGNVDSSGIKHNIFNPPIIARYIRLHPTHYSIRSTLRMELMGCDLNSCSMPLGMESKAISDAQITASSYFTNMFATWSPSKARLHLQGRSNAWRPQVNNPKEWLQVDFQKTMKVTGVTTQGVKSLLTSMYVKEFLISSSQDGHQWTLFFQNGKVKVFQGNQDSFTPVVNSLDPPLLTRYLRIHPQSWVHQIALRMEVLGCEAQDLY
T1 sequence (P00451 20-1667 partner limits assumed): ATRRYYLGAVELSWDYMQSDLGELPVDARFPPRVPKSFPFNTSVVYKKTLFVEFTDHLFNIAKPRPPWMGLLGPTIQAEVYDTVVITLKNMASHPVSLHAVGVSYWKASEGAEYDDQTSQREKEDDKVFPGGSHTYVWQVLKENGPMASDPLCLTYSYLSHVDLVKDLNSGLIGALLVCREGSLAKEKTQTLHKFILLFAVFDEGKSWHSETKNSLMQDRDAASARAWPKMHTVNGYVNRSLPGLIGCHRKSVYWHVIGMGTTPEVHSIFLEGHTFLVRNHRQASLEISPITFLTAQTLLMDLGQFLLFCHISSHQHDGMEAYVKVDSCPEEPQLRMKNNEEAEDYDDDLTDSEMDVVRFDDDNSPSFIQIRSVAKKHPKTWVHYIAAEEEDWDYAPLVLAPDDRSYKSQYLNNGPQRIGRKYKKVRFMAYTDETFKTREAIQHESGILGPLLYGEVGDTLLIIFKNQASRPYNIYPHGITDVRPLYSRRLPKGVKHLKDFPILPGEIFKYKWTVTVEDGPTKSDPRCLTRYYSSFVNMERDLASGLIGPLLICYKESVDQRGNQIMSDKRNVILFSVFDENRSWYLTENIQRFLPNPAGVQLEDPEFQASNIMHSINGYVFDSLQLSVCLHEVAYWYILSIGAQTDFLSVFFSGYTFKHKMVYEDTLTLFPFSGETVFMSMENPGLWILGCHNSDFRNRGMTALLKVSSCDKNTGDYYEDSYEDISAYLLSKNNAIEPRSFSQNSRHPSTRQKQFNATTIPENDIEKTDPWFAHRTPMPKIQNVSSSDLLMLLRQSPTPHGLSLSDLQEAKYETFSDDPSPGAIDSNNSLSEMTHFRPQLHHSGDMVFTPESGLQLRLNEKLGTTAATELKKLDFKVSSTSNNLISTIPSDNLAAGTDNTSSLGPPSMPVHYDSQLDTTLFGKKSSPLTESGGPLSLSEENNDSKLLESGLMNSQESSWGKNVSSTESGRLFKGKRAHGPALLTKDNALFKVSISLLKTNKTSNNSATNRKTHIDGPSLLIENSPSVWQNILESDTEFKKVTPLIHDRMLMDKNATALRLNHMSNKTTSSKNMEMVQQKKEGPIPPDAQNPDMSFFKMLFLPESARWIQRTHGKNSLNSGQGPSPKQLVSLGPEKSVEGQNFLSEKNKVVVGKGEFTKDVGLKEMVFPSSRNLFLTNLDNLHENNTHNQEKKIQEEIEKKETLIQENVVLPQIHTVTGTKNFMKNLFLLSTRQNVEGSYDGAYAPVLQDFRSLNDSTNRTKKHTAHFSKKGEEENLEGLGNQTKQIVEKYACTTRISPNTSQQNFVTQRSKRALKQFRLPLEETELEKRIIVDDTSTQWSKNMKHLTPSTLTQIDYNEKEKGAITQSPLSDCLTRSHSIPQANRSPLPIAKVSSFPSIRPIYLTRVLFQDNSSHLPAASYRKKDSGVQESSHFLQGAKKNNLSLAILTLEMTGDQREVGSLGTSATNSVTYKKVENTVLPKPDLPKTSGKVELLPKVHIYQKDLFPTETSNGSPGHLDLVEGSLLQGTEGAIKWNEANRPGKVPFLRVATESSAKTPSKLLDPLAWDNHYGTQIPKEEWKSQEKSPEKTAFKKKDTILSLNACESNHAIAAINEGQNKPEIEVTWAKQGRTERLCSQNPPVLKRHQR
Experimental: (§1) The binding of OPLS to several therapeutic proteins was evaluated using fluorescence spectroscopy (FIG. 2).

[2] = tested on: anti-FVIII antibody titers; experiment: FVIII-specific tolerance with OPLS, OPDS or Dex, rechallenge with free FVIII (FIG. 11); settings: s.c. co-administration with FVIII, then s.c. free FVIII
anti-IgG antibody titers = experiment: Effect of OPLS on human IgG immunogenicity; assay type: in vivo, mice; settings: 0.4 mg OPLS with 1 μg human IgG s.c., days 1, 8, 10, 12
Experimental: Materials and Methods: 8 animals were used for this pilot study, 4 animals were injected with Human-IgG (Sigma) alone (1 μg) or with Human IgG plus OPLS (1 μg human IgG plus 0.4 mg OPLS). The study was done with 4 injections over 2 weeks period as follows: day 1, day 8, day 10 and day 12 followed by a 3 days washout period. ELISA was done to measure total titers. Briefly, Nunc-Maxisorb 96-well plates were coated overnight at 4° C. with 50 μl/well of 2.5 μg/ml Human IgG. Plates were then washed and blocked with 1% bovine serum albumin (blocking buffer). 50 μl/well of various dilutions of the sample were added to the plate and incubated at room temperature for 2 h. Plasma samples from animals exposes to a sham treatment (buffer only) served as controls. The plates were then washed and incubated with 50 μl of goat anti-mouse anti-body-HRP conjugate at a 1:50000 dilution in blocking buffer at room temperature for 1 h. Color was developed for 20 min with 100 μl of TMB solution. 100 μl of 2 N H2SO4 was used to stop the reaction. Optical density at […] was measured using a plate reader. Non-responders were given the value of the plate specific factor for uniformity.
In this pilot study, animals were injected with Human-IgG (Sigma) alone (1 μg) or with OPLS […]. […]

anti-KLH IgG titer = experiment: 28-day repeat dose TDAR study, anti-KLH IgG; assay type: in vivo, CD-1 mice; settings: 28 daily doses, any OPLS dose
Description: FIG. 20. Anti-KLH IgG titer levels obtained from a short term, repeat dose (28 daily doses) TDAR study conducted in CD-1 mice.

[3] = Plasma chemistry markers after 21 daily doses of OPLS; assay type: in vivo, rhesus macaques; settings: 21 daily doses of 25 mg/kg, days 0, 8, 22
Experimental: FIG. 24. Effect of 21 daily doses of 25 mg/kg OPLS on plasma chemistry markers of rhesus macaques. Samples were drawn from the animals at baseline (day 0), at an intermediate time point during treatment (day 8) and 1 day after the termination of dosing (day 22).

OVA = target: T2, OVA (Gallus gallus, UniProt P01012); experiment: Binding of OPLS to OVA by fluorescence spectroscopy
T2 construct: purchased Sigma (St. Louis, Mo.)
T2 sequence (P01012 whole entry): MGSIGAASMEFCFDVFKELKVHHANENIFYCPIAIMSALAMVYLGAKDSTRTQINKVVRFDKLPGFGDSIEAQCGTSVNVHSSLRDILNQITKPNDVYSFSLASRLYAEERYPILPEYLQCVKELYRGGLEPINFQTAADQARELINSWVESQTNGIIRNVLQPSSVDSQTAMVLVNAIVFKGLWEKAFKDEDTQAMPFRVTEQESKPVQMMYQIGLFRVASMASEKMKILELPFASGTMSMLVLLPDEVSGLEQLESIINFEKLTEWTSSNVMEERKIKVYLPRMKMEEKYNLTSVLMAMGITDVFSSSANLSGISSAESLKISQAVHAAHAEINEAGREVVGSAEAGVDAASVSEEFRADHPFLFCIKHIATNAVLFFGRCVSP
Experimental: as §1

N[C@@H](COP(=O)(O)O)C(=O)O [OPLS, O-Phospho-L-Serine]
% of B-cells (lymphocyte subsets): transient increase | Lymphocyte subsets, baseline vs post treatment (lymphocyte subsets; days 0, 8, 22): no significant change | Tolerability of repeated, high doses [1]: well tolerated | Total anti-FVIII titers after rechallenge vs free FVIII (anti-FVIII total titers): significantly lower | Kd (FVIII; fluorescence titration, FIG. 2, read-out: Dissociation constant (Kd) of OPLS binding to FVIII): 8.4 µM | Binding affinity of FVIII for OPLS (FVIII; spectroscopic titration): highest affinity | FVIII-specific hypo-responsiveness upon rechallenge [2]: hypo-responsiveness | Anti-IgG antibody titers vs IgG alone (anti-IgG antibody titers): lower | Anti-KLH IgG titer levels vs vehicle (anti-KLH IgG titer): No statistical significance | Impact on renal and hepatic function (plasma chemistry markers) [3]: no impact | Kd (OVA; fluorescence titration, FIG. 2, read-out: Dissociation constant (Kd) of OPLS binding to OVA): 2570 µM | Binding affinity of OVA for OPLS (OVA; spectroscopic titration): lowest affinity
